Experimental data from ChEMBL document CHEMBL1201862, “PubChem BioAssay data set” (2004).
Counter-ions that a name gives are not always drawn.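 Protocol summary: plate cells (96-well), add compound at 5 concentrations, incubate 48 h, interpolate endpoints linearly. Here, GI50 denotes the concentration required for 50% inhibition of growth.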 Activity calls are given as the source filed them. No stated cut-off is given here; in the data, active = GI50 up to about 1.1 µM and inactive = higher. Starred links: 1 amine or outer side, 2 acyl side, 3 side chain; linkers in the order of their positions; H or OH if unused. Non-standard residues stand in square brackets, D forms with d. Residues, ends and D or L forms follow the SMILES beside them. ξ: configuration not given here. Ile(3ξ) = CCC(C)[C@H](N)C(=O)O; X35 = C=CCC(O[*:1])C(=O)[*:2]; NMeV = CN[C@H](C(=O)O)C(C)C; NMeA = CN[C@@H](C)C(=O)O; βAla = NCCC(=O)O

Experiments:
Test in all cases: NCI tumour cell line growth inhibition, 48 h
RXF 631 = tested on: RXF 631
XF498 = tested on: XF498
KM-20L2 = tested on: KM-20L2
DMS-114 = tested on: DMS-114
LXFL 529 = tested on: LXFL 529
SNB-78 = tested on: SNB-78
HOP-18 = tested on: HOP-18
M19-MEL = tested on: M19-MEL
DMS-273 = tested on: DMS-273

| Structure (SMILES) | GI50 (RXF 631) | GI50 (XF498) | GI50 (KM-20L2) | GI50 (DMS-114) | GI50 (LXFL 529) | GI50 (SNB-78) | GI50 (HOP-18) | GI50 (M19-MEL) | GI50 (DMS-273) |
| --- | --- | --- | --- | --- | --- | --- | --- | --- | --- |
| CC1=NCCc2c1[nH]c1cc(O)ccc21 [HARMALOL HYDROCHLORIDE] | > 100 µM (inactive) | > 100 µM (inactive) | > 100 µM (inactive) | > 100 µM (inactive) | > 100 µM (inactive) | > 100 µM (inactive) | > 100 µM (inactive) | > 100 µM (inactive) | – |
| Nc1nc(Cl)c2ncn(CCCC(c3ccccc3)P(=O)(O)O)c2n1 (centres undefined) | – | – | > 100 µM (inactive) | > 100 µM (inactive) | > 100 µM (inactive) | > 100 µM (inactive) | > 100 µM (inactive) | > 100 µM (inactive) | > 100 µM (inactive) |
| CCCCCCCCCCCc1c(O)c(=O)c2c(oc3c(=O)c(CCCCCCCCCCC)c(O)c(=O)c3n2-c2ccc(N(C)C)cc2)c1=O | – | 21.5 µM (inactive) | 19.3 µM (inactive) | 24.8 µM (inactive) | 21.2 µM (inactive) | 55.2 µM (inactive) | 22.6 µM (inactive) | – | 22.8 µM (inactive) |
| CCSc1nc(N2CCCC2)s[s+]1.[O-][Cl+3]([O-])([O-])[O-] | – | 31 µM (inactive) | 55.6 µM (inactive) | 17.6 µM (inactive) | 22.7 µM (inactive) | 74.8 µM (inactive) | > 100 µM (inactive) | 2.3 µM (inactive) | 49.5 µM (inactive) |
| CCCCCC#COC1CC(C)CC[C@@H]1C(C)C (some centres undefined) | – | – | 61.1 µM (inactive) | – | 97.9 µM (inactive) | > 100 µM (inactive) | > 100 µM (inactive) | 48 µM (inactive) | 65 µM (inactive) |
| O=C(CCCCCCCCC(=O)OCCCn1cc(C(=O)NC(=O)OCc2ccccc2)c(=O)[nH]c1=O)OCCCn1cc(C(=O)NC(=O)OCc2ccccc2)c(=O)[nH]c1=O | > 100 µM (inactive) | – | > 100 µM (inactive) | – | – | > 100 µM (inactive) | > 100 µM (inactive) | > 100 µM (inactive) | > 100 µM (inactive) |
| Clc1ccc(/N=N/c2nc3ccccc3nc2/N=N/c2ccc(Cl)cc2Cl)c(Cl)c1 | – | > 100 µM (inactive) | > 100 µM (inactive) | > 100 µM (inactive) | 78.5 µM (inactive) | > 100 µM (inactive) | – | > 100 µM (inactive) | – |
| C/C(=N\NS(=O)(=O)c1ccc(C)cc1)C(CN1CCCCC1)C(c1ccccc1)c1c(O)c2ccccc2oc1=O (centres undefined) | – | > 100 µM (inactive) | > 100 µM (inactive) | – | > 100 µM (inactive) | > 100 µM (inactive) | > 100 µM (inactive) | – | – |
| CC(C)NC1CCCCC2c3ccccc3C12O (centres undefined) | – | > 100 µM (inactive) | > 100 µM (inactive) | > 100 µM (inactive) | > 100 µM (inactive) | > 100 µM (inactive) | > 100 µM (inactive) | > 100 µM (inactive) | > 100 µM (inactive) |
| O=C(O)CC(NC(=O)CP(=O)(O)O)C(=O)O (centres undefined) | – | 596 µM (inactive) | 158 µM (inactive) | 741 µM (inactive) | – | 973 µM (inactive) | 3100 µM (inactive) | 97.9 µM (inactive) | 119 µM (inactive) |
| COc1ccc(C2=NN(C(C)=O)c3nc4ccccc4nc3O2)cc1 | 23 µM (inactive) | 19.1 µM (inactive) | – | 42.2 µM (inactive) | 31.4 µM (inactive) | – | 17.7 µM (inactive) | 89.7 µM (inactive) | 42.1 µM (inactive) |
| CS(=O)(=O)Sc1ccc(Cl)cc1 | 7.38 µM (inactive) | 10.7 µM (inactive) | 11.9 µM (inactive) | – | 11.3 µM (inactive) | 0.713 µM (active) | 26.8 µM (inactive) | 6.82 µM (inactive) | 5.15 µM (inactive) |
| C/C(=N\NC(=O)CC#N)c1c(O)cc(C)oc1=O | > 100 µM (inactive) | – | > 100 µM (inactive) | – | > 100 µM (inactive) | > 100 µM (inactive) | > 100 µM (inactive) | > 100 µM (inactive) | – |
| CCCCc1c2c(nc3c1CCC/C3=C\c1ccccc1)C(=O)C(CN(C)C)CC2 (centres undefined) | – | 14.9 µM (inactive) | 17.8 µM (inactive) | 17.7 µM (inactive) | 8.38 µM (inactive) | 20.7 µM (inactive) | 23.6 µM (inactive) | 16.7 µM (inactive) | 20.2 µM (inactive) |
| Nc1nc(SCC(=O)c2ccccc2)c2[nH]cnc2n1 | – | > 100 µM (inactive) | > 100 µM (inactive) | > 100 µM (inactive) | – | – | > 100 µM (inactive) | > 100 µM (inactive) | > 100 µM (inactive) |
| CCCN(CCC)c1c([N+](=O)[O-])cc(C(=O)N(CC)CC)cc1[N+](=O)[O-] | – | – | 18.4 µM (inactive) | 10.9 µM (inactive) | 19.1 µM (inactive) | 31 µM (inactive) | – | 20.7 µM (inactive) | 17.6 µM (inactive) |
| O=C1C(Cl)=C(Cl)C(=O)N1c1ccc(F)cc1 [FLUOROIMIDE] | 28.9 µM (inactive) | 19.9 µM (inactive) | 22.1 µM (inactive) | 19.7 µM (inactive) | 15.9 µM (inactive) | 27 µM (inactive) | 21.1 µM (inactive) | 19.5 µM (inactive) | 25.8 µM (inactive) |
| O=C1NC2OCC(O)C(O)C2O1 (centres undefined) | – | – | > 100 µM (inactive) | > 100 µM (inactive) | > 100 µM (inactive) | > 100 µM (inactive) | > 100 µM (inactive) | > 100 µM (inactive) | > 100 µM (inactive) |
| CCCCC[C@@H]1CCCC2NC(CCCCCO[Si](c3ccccc3)(c3ccccc3)C(C)(C)C)CCC21 (some centres undefined) | 11.5 µM (inactive) | – | 10.6 µM (inactive) | 13 µM (inactive) | – | 15.1 µM (inactive) | – | 17.3 µM (inactive) | 16.8 µM (inactive) |
| O=c1c(Sc2c(O)c3ccccc3c3ccccc3c2=O)c(O)c2ccccc2c2ccccc12 | 37.2 µM (inactive) | – | 37.4 µM (inactive) | 25.4 µM (inactive) | 30 µM (inactive) | – | 24.2 µM (inactive) | 31.8 µM (inactive) | 25.1 µM (inactive) |
| C=CCc1cc(OC)c2c(c1)C(O)CC(c1ccc(OC)c(OC)c1)O2 (centres undefined) | – | – | > 100 µM (inactive) | 59.8 µM (inactive) | > 100 µM (inactive) | > 100 µM (inactive) | > 100 µM (inactive) | > 100 µM (inactive) | > 100 µM (inactive) |
| C=CCC1OC(=O)CCNC(=O)[C@H](C)N(C)C(=O)[C@H](C(C)C)N(C)C(=O)[C@H](C(C)CC)NC(=O)[C@@H]2CCCN2C1=O (some centres undefined) (cyclo([Ile(3ξ)][NMeV][NMeA][βAla][X35]P)) | 4.92 µM (inactive) | 3.65 µM (inactive) | 3.18 µM (inactive) | 7.5 µM (inactive) | 3.94 µM (inactive) | > 100 µM (inactive) | – | 5.96 µM (inactive) | 3.63 µM (inactive) |
| C1=c2ccccc2=C2C(=C(c3ccccc3)C(c3ccccc3)=NN2c2ccccc2)S1 | – | – | > 100 µM (inactive) | > 100 µM (inactive) | > 100 µM (inactive) | > 100 µM (inactive) | > 100 µM (inactive) | > 100 µM (inactive) | > 100 µM (inactive) |
| NCc1cc(O)c(O)c(O)c1 | > 100 µM (inactive) | > 100 µM (inactive) | > 100 µM (inactive) | > 100 µM (inactive) | > 100 µM (inactive) | > 100 µM (inactive) | > 100 µM (inactive) | 80.4 µM (inactive) | > 100 µM (inactive) |
